Read-outs that look alike come from different tables or passages of the source. Marks after values point to notes of the source that are not given here.
Legend:
[1] = UV-absorption titration determination of pKa; assay type: physicochemical
Method: (§1) General information. ^1H, ^13C and ^19F NMR were collected on a Varian Gemini 300 MHz NMR spectrometer and a Bruker 300 MHz NMR spectrometer. Mass spectrometry data was collected on a Jeol JMS-600H. UV spectra were recorded on a Shimadzu UV-2100. Fluorescence spectra were obtained with SPEX FluoMax spectrofluorimeter using right-angle geometry. pH was adjusted with AB 15 plus pH meter (Accument) after standardization at 25° C. All buffers were prepared and pH-adjusted at room temperature (25° C.). Plasmid DNA Photocleavage. pBR322 plasmid DNA (4,361 b/p; from BioLabs Inc., 1 μg/μL solution in 10 mM Tris-HCl (pH 8.0), and 1 mM EDTA buffer) was diluted to a concentration of 0.01 μg/μL. The solution containing cleavage agent, DNA (30 μM/bp) in 20 mM sodium phosphate buffer was incubated for 1 hour at 30° C. Samples were placed on ice at a distance of 20 cm from 200 W Hg—Xe lamp (Spectra-Physics, Laser & Photonics Oriel Instruments with long pass filter with 324 nm cut-off wavelength). Electrophoretic Analysis. The gel electrophoresis was carried out in 1×TBE buffer at 80 V using Miligel FisherBiotech Horizontal Electrophoresis System. All gels were run on 1% agarose slab gels. Before loading, the DNA samples were mixed with 0.33 volume of tracking dye containing bromophenol blue (0.25%) and glycerol (30%) in water. After staining in ethidium bromide solution (2 μg/ml) for 1 hour, the gel was washed with water and pictures were taken with Polaroid 3000ISO type 667 film. The relative quantities of the supercoiled, nicked, and linear DNA were calculated by integrating the “area” of each spot by the image analyzer software Total/Lab (Nonlinear Dynamics Ltd., UK). The amount of supercoiled DNA was multiplied by factor of 1.4 to account for reduced ethidium bromide intercalation into supercoiled DNA. pH titration by ^1H-NMR. pH* of compound 8 (3 mM) solution in D2O containing 0.05 wt % 3-(trimethylsilyl)propionic-2,2,3,3-d4 acid, sodium salt (TSP-d4) was adjusted with 10 wt % DCI and NaOD in D2O at 25° C. under argon purged condition. Spectrometric determinations of pKa. pH of 10 μM of compound solution in H2O was adjusted with 10, 100 mM HCl (aq) and NaOH (aq) solution under argon purged condition. Excitation wavelength was 330 nm and polymethacrylate fluorimeter cuvettes were used. Absorbance and fluorescence titration with DNA. The concentrations of calf thymus DNA stock solution was determined spectophotometrically using the following molar absorptovity values: 1.32×10^4 M^−1 cm^−1 (per base pair) at 260 nm. All experiments were done in 20 mM sodium phosphate buffer at 25° C. and polymethacrylate fluorimeter cuvettes were used. The same amount of DNA was added to both sample and reference cuvettes during UV/Vis titration. Determination of excited state lifetimes. The concentration of compound solution was 10 μM in 20 mM sodium phosphate buffer. The photoluminescence lifetime measurements were conducted by exciting the samples with the output of a Nd:VO—4 (Spectra-Physics Vanguard, 2 W, 532 nm, 76 MHz, 10 ps) pumped R6G dye laser (Coherent 702-1). The output of the dye laser (600 nm, Rhodamine 6G) was cavity dumped at 1.9 MHz and frequency doubled using a BBO crystal to excite the fluorophore (the excitation wavelength used was 290 nm). Samples were excited with <1 mW power and the emission was collected at right angles onto a Chromex S3 500 is 0.5 m imaging monochromator with a 50 g/mm grating and 0.5 nm resolution. […]

[2] = tested on: pBR322 plasmid DNA; assay: Plasmid relaxation assay: DNA photocleavage of supercoiled plasmid under UV irradiation; assay type: biochemical; settings: pH 6, 15 μM, 10 min of UV irradiation
Method: General information. ^1H, ^13C and ^19F NMR were collected on a Varian Gemini 300 MHz NMR spectrometer and a Bruker 300 MHz NMR spectrometer. Mass spectrometry data was collected on a Jeol JMS-600H. UV spectra were recorded on a Shimadzu UV-2100. Fluorescence spectra were obtained with SPEX FluoMax spectrofluorimeter using right-angle geometry. pH was adjusted with AB 15 plus pH meter (Accument) after standardization at 25° C. All buffers were prepared and pH-adjusted at room temperature (25° C.). Plasmid DNA Photocleavage. pBR322 plasmid DNA (4,361 b/p; from BioLabs Inc., 1 μg/μL solution in 10 mM Tris-HCl (pH 8.0), and 1 mM EDTA buffer) was diluted to a concentration of 0.01 μg/μL. The solution containing cleavage agent, DNA (30 μM/bp) in 20 mM sodium phosphate buffer was incubated for 1 hour at 30° C. Samples were placed on ice at a distance of 20 cm from 200 W Hg—Xe lamp (Spectra-Physics, Laser & Photonics Oriel Instruments with long pass filter with 324 nm cut-off wavelength). Electrophoretic Analysis. The gel electrophoresis was carried out in 1×TBE buffer at 80 V using Miligel FisherBiotech Horizontal Electrophoresis System. All gels were run on 1% agarose slab gels. Before loading, the DNA samples were mixed with 0.33 volume of tracking dye containing bromophenol blue (0.25%) and glycerol (30%) in water. After staining in ethidium bromide solution (2 μg/ml) for 1 hour, the gel was washed with water and pictures were taken with Polaroid 3000ISO type 667 film. The relative quantities of the supercoiled, nicked, and linear DNA were calculated by integrating the “area” of each spot by the image analyzer software Total/Lab (Nonlinear Dynamics Ltd., UK). The amount of supercoiled DNA was multiplied by factor of 1.4 to account for reduced ethidium bromide intercalation into supercoiled DNA. pH titration by ^1H-NMR. pH* of compound 8 (3 mM) solution in D2O containing 0.05 wt % 3-(trimethylsilyl)propionic-2,2,3,3-d4 acid, sodium salt (TSP-d4) was adjusted with 10 wt % DCI and NaOD in D2O at 25° C. under argon purged condition. Spectrometric determinations of pKa. pH of 10 μM of compound solution in H2O was adjusted with 10, 100 mM HCl (aq) and NaOH (aq) solution under argon purged condition. Excitation wavelength was 330 nm and polymethacrylate fluorimeter cuvettes were used. Absorbance and fluorescence titration with DNA. The concentrations of calf thymus DNA stock solution was determined spectophotometrically using the following molar absorptovity values: 1.32×10^4 M^−1 cm^−1 (per base pair) at 260 nm. All experiments were done in 20 mM sodium phosphate buffer at 25° C. and polymethacrylate fluorimeter cuvettes were used. The same amount of DNA was added to both sample and reference cuvettes during UV/Vis titration. Determination of excited state lifetimes. The concentration of compound solution was 10 μM in 20 mM sodium phosphate buffer. The photoluminescence lifetime measurements were conducted by exciting the samples with the output of a Nd:VO—4 (Spectra-Physics Vanguard, 2 W, 532 nm, 76 MHz, 10 ps) pumped R6G dye laser (Coherent 702-1). The output of the dye laser (600 nm, Rhodamine 6G) was cavity dumped at 1.9 MHz and frequency doubled using a BBO crystal to excite the fluorophore (the excitation wavelength used was 290 nm). Samples were excited with <1 mW power and the emission was collected at right angles onto a Chromex S3 500 is 0.5 m imaging monochromator with a 50 g/mm grating and 0.5 nm resolution. Output of the monochromator is focused into a Hamamatsu C5680 streak camera operating at a 20 ns window for the fluorophore. Intensity analysis was carried out by integrating the spectral profile in time on the streak camera. Lifetime analysis over 6-7 lifetimes of the fluorophore was conducted by binning the photoluminescence intensity collected on the streak camera over a 20 nm spectral window at the centroid value of the emission of the fluorophore. Ethidium bromide displacement. […]

[3] = Fluorometric (emission) determination of pKa; assay type: physicochemical; settings: emission; α-amino group (4, 6), ε-amino group (7)
Method: as §1

[4] = pH (pD) titration by 1H-NMR in D2O; assay type: physicochemical; settings: uncorrected
Method: General information. ^1H, ^13C and ^19F NMR were collected on a Varian Gemini 300 MHz NMR spectrometer and a Bruker 300 MHz NMR spectrometer. Mass spectrometry data was collected on a Jeol JMS-600H. UV spectra were recorded on a Shimadzu UV-2100. Fluorescence spectra were obtained with SPEX FluoMax spectrofluorimeter using right-angle geometry. pH was adjusted with AB 15 plus pH meter (Accument) after standardization at 25° C. All buffers were prepared and pH-adjusted at room temperature (25° C.). Plasmid DNA Photocleavage. pBR322 plasmid DNA (4,361 b/p; from BioLabs Inc., 1 μg/μL solution in 10 mM Tris-HCl (pH 8.0), and 1 mM EDTA buffer) was diluted to a concentration of 0.01 μg/μL. The solution containing cleavage agent, DNA (30 μM/bp) in 20 mM sodium phosphate buffer was incubated for 1 hour at 30° C. […] The relative quantities of the supercoiled, nicked, and linear DNA were calculated by integrating the “area” of each spot by the image analyzer software Total/Lab (Nonlinear Dynamics Ltd., UK). […] Absorbance and fluorescence titration with DNA. The concentrations of calf thymus DNA stock solution was determined spectophotometrically using the following molar absorptovity values: 1.32×10^4 M^−1 cm^−1 (per base pair) at 260 nm. […]

[5] = published literature; cited from earlier work
[6] = tested on: DNA; settings: cited from earlier work

Cl.NCCCCCC(=O)Nc1ccc(C#Cc2c(F)c(F)nc(F)c2F)cc1 [Compound 7, 6-Aminohexanoic acid [4-(2,3,5,6-tetrafluoro-pyridin-4-ylethynyl)-phenyl]-amide Hydrochloride]
pKa for the ε-ammonium group lower by absorption than derived from the fluorescence changes ([1]; absorption vs fluorescence): > 1 pKa units
pKa1 ([1]; absorption, α-amino group (4, 6), ε-amino group (7)): 9.4
ds-cleavage [2]: do not produce any ds-cleavage
pKa1 [3]: 10.8

Cl.Cl.NCCCC[C@H](N)C(=O)Nc1ccccc1 [Compound 8, (S)-2,6-Diaminohexanoic acid phenyl-amide dihydrochloride]
pKa1 (α-amino group) [4]: 7.56
pKa2 (ε-amino group) [4]: 10.75

NCCCC[C@H](N)C(=O)O [Lysine]
pKa1 [5]: 8.95^b
pKa2 [5]: 10.53^b

COc1cc(CCN)c2c(c1OC)SS[S+]2[O-] (stereo not shown) [Varacin C]
extent of single stranded (ss) DNA cleavage ([6]; pH 5.5, 5 μM antibiotic loading): 47%
extent of single stranded (ss) DNA cleavage ([6]; pH 7): 23%
